Laboratory results as given in patent US20240262860A1, “PENTACYCLIC TRITERPENOID GLYCOSIDE COMPOUND, AND PREPARATION METHOD THEREFOR AND USE THEREOF” (SHANGHAI INSTITUTE OF MATERIA MEDICA, CHINESE ACADEMY OF …, priority 2020, published 2024).
“Also recorded” adds a separate entry of the source.

Legend:
[1] = tested on: SARS Cov-2 virus; experiment: SARS Cov-2 virus replication inhibition in Vero E6 cells (viral copy number by qPCR); format: cell-based; conditions: Severe acute respiratory syndrome coronavirus 2, Vero C1008, MOI 0.05, 24 hours
[2] = PK property in mice; format: in vivo, ICR (CD-1) mice; conditions: PO 25 mg/kg, IV 3 mg/kg
Method: Species/strain: ICR (CD-1) mice
Gender/number of rats: male (n=6)
Weight (g): male (20-24 g)
Type of diet: standard rodent diet • freely drink • Fasted for 12 hours before administration and keeping fasting for 2 hours.
Feeding: animal room environment control (target conditions: temperature 18 to 29° C., relative humidity 30 to 70%. Temperature and relative humidity were monitored every day. The electronic time control lighting system was used to provide 12 hours of light/12 hours of dark cycle.

[3] = tested on: ICR mice; experiment: Oral glucose tolerance (OGTT) pharmacodynamic experiment in ICR mice; format: in vivo; conditions: for hypoglycemic effect: OGTT; for hypoglycemic activity: oral glucose tolerance, glucose 5 g/kg, compound given 0.5 h before sugar
Method: 1. Pharmacodynamic Experiment of Compound on Oral Glucose Tolerance in ICR Mice
After the animals arrived at WuXi AppTec facilities, they were kept in the animal feeding room with strictly controlled environmental conditions. The temperature was kept at 20-24° C. and the humidity was kept at 30-70% in the feeding room. The temperature and humidity of the feeding room were monitored in real time through the temperature and humidity meter, and the temperature and humidity were recorded twice a day (once in the morning and once in the afternoon). The lighting in the animal feeding room was controlled by an electronic timing lighting system, which was turned on for 12 hours every day and turned off for 12 hours (on at 7:00 a.m. and off at 19:00 p.m.). During the experiment, the animals were raised in a single cage and toys were provided for mice in each cage. During the experiment, the animals freely took food (growth/reproduction feed for rats and mice) and water.
After the animals arrived, they can adapt to the environment for 1-2 weeks before conducting the experiment.
1) Preparation of liquid medicine: each compound was prepared on the first day of the experiment, and then stored in a 4° C. refrigerator for use on the next day.
2) Administration: After grouping, animals in each group were administered 0.5 hours before sugar administration.
3) Oral glucose tolerance experiment: sugar was administrated to the animals by gavage 0.5 hour after the end of the animal administration, and the time of sugar administration was recorded as 0 min. The oral dose of glucose was 5 g/kg, 10 ml/kg. The blood glucose of animals was detected before administration, before sugar administration, and 15, 30, 60, 90, and 120 minutes after sugar administration. The blood glucose was detected with a blood glucose meter and the corresponding blood glucose test paper.

[4] = tested on: intestinal endocrine cell line STC-1 cell; experiment: In vitro GLP-1 secretion in STC-1 cells (HTRF kit); format: cell-based; conditions: for EC50: 1 h treatment, read-out: EC50 of promoting GLP-1 secretion in vitro
Method: Cell line: intestinal endocrine cell line STC-1 cell
Positive control: INT777 (TGR5 receptor agonist)
Others: KRBH buffer, BSA, DPP4 inhibitor
STC-1 cells were seeded with a certain density. After the cells adhered to the wall overnight, they were starved with KRBH buffer, while BSA was used to maintain nutrition, and degradation of GLP-1 was reduced with DPP4 inhibitors. After 1 h, they were replaced with glucose free or glucose containing KRBH buffer to stimulate GLP-1 secretion. At the same time, compounds of certain concentrations were added. After 1 h of treatment, supernatant was collected and tested for GLP-1 concentration with HTRF kit. The secretion of LDH was also detected to indicate the toxicity of the compounds.

[5] = tested on: MDCK cell; experiment: Cytotoxicity in the anti influenza virus assay (MDCK cells); format: cell-based; conditions: screening concentration 50 μM
Method: CellTiter-Glo® Luminescent Cell Viability Assay
Screening concentration: 50 μM
MDCK cells were laid with 96 well plates (1×10^4/well) and incubated in 37° C. and 5% CO2 incubators for 24 h, then the medicine was added.
After dosing, the 96 well plate was put in the 37° C., 5% CO2 incubator for 36 h, and detected with the microplate reader.

[6] = tested on: influenza virus; format: cell-based; conditions: MDCK cells, screening concentration 50 μM, 36 h

Q: With `CNC(=O)C1O[C@@H]([C@H](O)[C@H]2CC[C@@]3(C)C(CC[C@]4(C)C3CC=C3C5CC(C)(C)CC[C@]5(C(=O)O)CC[C@]34C)C2(C)C)C(O)C(O)[C@@H]1O` (stereo partly drawn) [Example A114, (3S,5S,8R,9R,10S,14R,17R,18S)-Oleanolic acid-3-(1′R)-(hydroxy)methyl-6″-methylamino-β-D-glucurouopyranoside] as the molecule, how does the EC50 [1] read?
A: The EC50 was 4.6 µM.

Q: With `CC1(C)CC[C@]2(C(=O)OCn3cccn3)CC[C@]3(C)C(=CCC4[C@@]5(C)CC[C@H]([C@@H](O)[C@@H]6OC(C(=O)O)[C@@H](O)C(O)C6O)C(C)(C)C5CC[C@]43C)C2C1` (stereo partly drawn) [Example A104, (3S,5S,8R,9R,10S,14R,17R,18S)-28-O-(Pyrazol-1″′-yl)methyl oleanolic acid-3-(1′R)-(hydroxy)methyl-β-D-glucurouopyranoside] as the molecule, how does the PK properties [2] read?
A: Its PK properties is “good PK properties”.

Q: What about the EC50 [1] of the same molecule?
A: Its EC50 is 3.6 µM.

Q: For `CC1(C)CC[C@]2(C(=O)O)CC[C@]3(C)C(=CCC4[C@@]5(C)CC[C@H]([C@@H](O)[C@@H]6OC(C(=O)O)[C@@H](O)C(O)C6O)C(C)(C)C5CC[C@]43C)C2C1` (stereo partly drawn) [Example A25, (3S,5S,8R,9R,10S,14R,17R,18S)-Oleanolic acid-3-(1′R)-(hydroxy)methyl-β-D-glucurouopyranoside], which hypoglycemic effect ([3]; 25 mg/kg) is on record?
A: Its hypoglycemic effect is “obvious hypoglycemic effect”.

Q: And the hypoglycemic effect ([3]; 50 mg/kg)?
A: Its hypoglycemic effect is “further enhanced hypoglycemic effect”.

Q: And the hypoglycemic activity [3]?
A: Its hypoglycemic activity is “good in vivo hypoglycemic effect; also recorded: best hypoglycemic activity”.

Q: With `CC1O[C@@H]([C@H](O)[C@H]2CC[C@@]3(C)C(CC[C@]4(C)C3CC=C3C5CC(C)(C)CC[C@]5(C(=O)O)CC[C@]34C)C2(C)C)C(O)C(O)[C@H]1O` (stereo partly drawn) [Example A43, (3S,5S,8R,9R,10S,14R,17R,18S)-Oleanolic acid-3-(1'S)-(hydroxy)methyl-α-L-rhamnopyranoside] as the molecule, how does the hypoglycemic effect ([3]; 25 mg/kg) read?
A: The hypoglycemic effect was “obvious hypoglycemic effect”.

Q: And the hypoglycemic effect ([3]; 50 mg/kg)?
A: The hypoglycemic effect was “further enhanced hypoglycemic effect”.

Q: And the hypoglycemic activity [3]?
A: The hypoglycemic activity was “good in vivo hypoglycemic effect; also recorded: best hypoglycemic activity”.

Q: Which results are given for `CC1(C)CC[C@]2(C(=O)O)CC[C@]3(C)C(=CCC4[C@@]5(C)CC[C@@H](C[C@@H]6OC(C(=O)O)[C@@H](O)C(O[C@@H]7OC[C@@H](O)C(O)C7O)C6O)C(C)(C)C5CC[C@]43C)C2C1` (stereo partly drawn) [Example A64, (3R,5S,8R,9R,10S,14R,17R,18S)-Oleanolic acid-3-methyl-β-D-xylopyranosyl(1→3)-β-D-glucurouopyranoside]?
A: in vitro effect of promoting GLP-1 secretion [4]: good in vitro effect of promoting GLP-1 secretion; EC50 [4]: 7.23 µM

Q: For `CC[C@H]1[C@@H](O)[C@@H]2[C@H](C[C@H](O)[C@]3(C)[C@@H]([C@H](C)C[C@H](C)C(=O)O)CC[C@@H]23)[C@@]2(C)CC[C@@H](O)C[C@@H]12` [INT777, reference compound], which EC50 [4] is on record?
A: The EC50 was 22.8 µM.

Q: Which cytotoxicity [5] does the source give for `CC1(C)CC[C@]2(C(=O)O)CC[C@]3(C)C(=CCC4[C@@]5(C)CC[C@H]([C@@H](O)[C@@H]6OC(CO)[C@@H](O)C(O)C6O)C(C)(C)C5CC[C@]43C)C2C1` (stereo partly drawn) [Example A2, (3S,5S,8R,9R,10S,14R,17R,18S)-Oleanolicacid-3-(1′R)-(hydroxyl)methyl-β-D-glucopyranoside] here?
A: The cytotoxicity was “low cytotoxicity; also recorded: lower cytotoxicity than that of ribavirin”.

Q: And the virus inhibition rate [6]?
A: Its virus inhibition rate is “same virus inhibition rate”.
